{"source": "patent US9903855B2", "about": "“Assays for screening for or identifying an agent or molecule that can block or inhibit AVB3 integrin from forming a complex with KRAS” (THE REGENTS OF THE UNIVERSITY OF CALIFORNIA, priority 2012, dated 2018)", "key": {"H1650 cells": {"test_system": "H1650 cells", "assay": "Erlotinib response of human carcinoma cell lines in 3D culture", "format": "cell-based", "conditions": "wildtype KRAS and mutant EGFR", "experimental": "(§1) Tumorsphere assay was performed as previously described (10).\n(§2) (C) Percentage of integrin β3 positive cells in parental lines vs. after 3 or 8 weeks treatment with erlotinib. (D) Quantification of integrin β3 (ITGβ3) gene expression in human lung cancer biopsies from patients from the BATTLE Study (18) who were previously treated with an EGFR inhibitor and progressed (n=27), versus patients who were EGFR inhibitor naïve (n=39). (*P=0.04 using a Student's t test). (E) Paired human lung cancer biopsies obtained before and after erlotinib resistance were immunohistochemically stained for integrin β3. Scale bar, 50 μm. (F) Right, effect of integrin β3 knockdown on erlotinib resistance of β3-positive cells. Cells were treated with 0.5 μM of erlotinib. […] Left, effect of integrin β3 ectopic expression on erlotinib resistance in FG and H441 cells. […] (G) Right, effect of integrin β3 knockdown on erlotinib resistance in vivo, A549 shCTRL and A549 sh integrin β3 (n=8 per treatment group) were treated with erlotinib (25 mg/kg/day) or vehicle during 16 days. Results are expressed as average of tumor volume at day 16. *P<0.05. Left, orthotopic FG and FG-β3 tumors (>1000 mm^3; n=5 per treatment group) were treated for 30 days with vehicle or erlotinib. Results are expressed as % tumor weight compared to vehicle control. *P<0.05."}, "FG, H441, and CAPAN1": {"test_system": "FG, H441, and CAPAN1", "assay": "Erlotinib response of human carcinoma cell lines in 3D culture", "format": "cell-based", "conditions": "tumor cell lines with oncogenic KRAS", "experimental": "as §1, §2"}, "[1]": {"test_system": "β3-positive cells (FG-β3, MDA-MB231, FG-R)", "assay": "Soft agar anchorage independent growth, colonies counted", "format": "cell-based, human", "conditions": "erlotinib (0.5 μM), Lenalidomide (2 μM), PS-1145 (1 μM) alone, 10 to 15 days", "description": "Then, the soft agar were stained with crystal violet and the colonies were counted manually."}, "[2]": {"test_system": "stage IV non-small cell lung cancer", "assay": "Serial biopsies from NSCLC patients on erlotinib therapy", "format": "in vivo, human", "description": "Tumor biopsies from University of California, San Diego (UCSD) Medical Center stage IV non-small cell lung cancer patients were obtained before erlotinib treatment and 3 patients before and after erlotinib resistance. All biopsies are from lung or pleural effusion. […] This work was approved by the UCSD Institutional Review Board (IRB)."}, "PANC-1 cells": {"test_system": "PANC-1 cells", "assay": "Tumor sphere formation assay, erlotinib dose-response", "format": "cell-based, human", "conditions": "knockdown of αvβ3 in PANC-1 cells", "description": "(§3) (a) Flow cytometric quantification of cell surface markers after 3 weeks treatment with erlotinib (pancreatic and colon cancer cells) or lapatinib (breast cancer cells). (b) Flow cytometric analysis of αvβ3 expression in FG and Miapaca-2 cells following erlotinib. Error bars represent s.d. (n=3 independent experiments). (c) Top, immunofluorescence staining of integrin αvβ3 in tissue specimens obtained from orthotopic pancreatic tumors treated with vehicle (n=3) or erlotinib (n=4). Scale bar, 50 μm. Bottom, Integrin αvβ3 expression was quantified as ratio of integrin αvβ3 pixel area over nuclei pixel area using Metamorph (*P=0.049 using Mann-Whitney U test). (d) Right, intensity (scale 0 to 3) of β3 expression in mouse orthotopic lung tumors treated with vehicle (n=8) or erlotinib (n=7). Left, immunohistochemical staining of β3. Scale bar, 100 μm.\nTumor spheres formation assays were performed essentially as described previously^17. Briefly, cells were seeded at 1000 to 2000 cells per well and grown for 12 days to 3 weeks. […] The media was replaced with fresh inhibitor every day for erlotinib, lapatinib, lenalidomide and 3 times a week for cisplatin and gemcitabine. Colonies were stained with crystal violet and scored with an Olympus SZH10 microscope."}, "[3]": {"test_system": "H441 human lung adenocarcinoma orthotopic tumors", "assay": "Orthotopic lung cancer xenograft model", "format": "in vivo, mice", "description": "as §3"}, "EGFR phosphorylation": {"test_system": "EGFR phosphorylation", "assay": "Immunoblot analysis of orthotopic FG tumor lysates", "format": "in vivo, mice", "conditions": "after 10 days of erlotinib", "experimental": "Error bars represent s.d. […] Scale bar, 50 μm. […] Scale bar, 100 μm.\nAll mouse experiments were carried out in accordance with approved protocols from the UCSD animal subjects committee and with the guidelines set forth in the NIH Guide for the Care and Use of Laboratory Animals. Tumors were generated by injection of FG human pancreatic carcinoma cells (10^6 tumor cells in 30 μL of sterile PBS) into the tail of the pancreas of 6-8 week old male immune compromised nu/nu mice."}, "[4]": {"test_system": "phosphorylated TBK1 and NF-κB", "assay": "Immunoblot analysis of RalB effectors in cells grown in suspension", "format": "cell-based, human", "conditions": "for levels of phosphorylated TBK1 and NF-κB: erlotinib (0.5 μM)", "experimental": "Immunoblot analysis of FG, FG-β3 and FG-β3 stably expressing non-silencing or RalB-specific ShRNA, grown in suspension and treated with erlotinib (0.5 μM). pTBK1 refers to phospho-S172 TBK1, p-p65 NF-κB refers to phospho-p65 NF-κB S276, pFAK refers to phospho-FAK Tyr 861. Data are representative of three independent experiments. (b) Tumor spheres formation assay of FG cells ectopically expressing vector control, WT NF-κB FLAG tagged or constitutively active S276D NF-κB FLAG tagged constructs treated with erlotinib (0.5 μM). Error bars represent s.d. (n=3 independent experiments). *P<0.05, **P<0.001, NS=not significant. Immunoblot analysis showing NF-κB WT and S276D NF-κB FLAG transfection efficiency. (c) Tumor spheres formation assay of FG-β3 treating with non-silencing (shCTRL) or NF-κB-specific shRNA and exposed to erlotinib (0.5 μM). Error bars represent s.d. (n=3 independent experiments). *P<0.05, NS=not significant. (d) Dose response in FG-β3 cells treated with erlotinib (10 nM to 5 μM), lenalidomide (10 nM to 5 μM) or a combination of erlotinib (10 nM to 5 μM) and lenalidomide (1 μM). Error bars represent s.d. (n=3 independent experiments). *P<0.05, NS=not significant. (e) Model depicting the integrin αvβ3-mediated EGFR TKI resistance and conquering EGFR TKI resistance pathway and its downstream RalB and NF-κB effectors.\nCells were lysed in either RIPA lysis buffer (50 mM Tris pH 7.4, 100 mM NaCL, 2 mM EDTA, […], 10% Triton, 0.1% SDS) or Triton lysis buffer (50 mM Tris pH 7.5, 150 mN NaCl, 1 mM EDTA, 5 mM MgCl2, 10% Glycerol, 1% Triton) supplemented with complete protease and phosphatase inhibitor mixtures (Roche) and centrifuged at 13,000 g for 10 min at 4° C. Protein concentration was determined by BCA assay. […]\n(A) Effect of RalB knockdown on erlotinib resistance of β3-positive epithelial cancer cell lines. […] Results are expressed as % of tumor weight changes after erlotinib treatment compared to vehicle. **P<0.01. […]"}, "[5]": {"test_system": "FG and PANC-1 cells expressing or lacking integrin β3", "assay": "Soft agar / tumorsphere 3D growth, drug dose response (Example 3)", "format": "cell-based, human", "conditions": "cells growing in 3D", "experimental": "Tumorsphere assay was performed as previously described. Soft agar formation assays were performed essentially as described previously. […] The media was replaced with fresh inhibitor 2/5 times a week. […] (a) Effect of integrin β3 expression (ectopic expression for FG and integrin β3-specific knockdown for PANC-1) cells on drug treatment response. Cells were treated with a dose response of gemcitabine, cisplatin, erlotinib, lapatinib and linsitinib. […] Tumor volumes are expressed as mean±SEM. *P<0.05. […] Results are expressed as % tumor weight compared to vehicle control. *P<0.05. […] HCC827 cells were treated with vehicle control or erlotinib (12.5 mg/kg/day) until acquired resistance. […] Data are mean±SE; **P<0.001. […] Scale bar, 50 μm. (h) Limiting dilution in vivo determining the frequency of tumor-initiating cells for HCC827 vehicle-treated (vehicle) and erlotinib-treated tumors from (erlotinib resistant non-sorted) (e). The HCC827 erlotinib-treated tumors have been digested and sorted in two groups: the integrin β3- and the integrin β3+ population."}, "FG and FG-β3 cells": {"test_system": "FG and FG-β3 cells", "assay": "Tumor sphere formation assay of FG and FG-β3 cells", "format": "cell-based, human", "conditions": "FG-β3 versus FG", "method": "Tumor spheres formation assays were performed essentially as described previously^17. Briefly, cells were seeded at 1000 to 2000 cells per well and grown for 12 days to 3 weeks. Cells were treated with vehicle (DMSO), erlotinib (10 nM to 5 μM), lapatinib (10 nM to 5 μM), gemcitabine (0.001 nM to 5 μM), OSI-906 (10 nM to 5 μM), lenalidomide (10 nM to 5 μM), or cisplatin (10 nM to 5 μM), diluted in DMSO. The media was replaced with fresh inhibitor every day for erlotinib, lapatinib, lenalidomide and 3 times a week for cisplatin and gemcitabine. Colonies were stained with crystal violet and scored with an Olympus SZH10 microscope. Survival curves were generated at least with five concentration points."}, "[6]": {"test_system": "β3-negative and β3-positive cells", "assay": "Tumorsphere assay of β3-negative and β3-positive cells (Example 2)", "format": "cell-based, human", "conditions": "β3-positive versus β3-negative cells", "method": "Tumorsphere assay was performed as previously described (10). Cells were treated with vehicle (DMSO), erlotinib (10 nM to 5 μM), lapatinib (10 nM to 5 μM), gemcitabine (0.001 nM to 5 μM), OSI-906 (10 nM to 5 μM), lenalidomide (1 μM), cisplatin (10 nM to 5 μM), or bortezomib (4 nM) diluted in DMSO. The media was replaced with fresh inhibitor 2/6 times a week. Survival curves were generated at least with five concentration points.\n(D) Representative photographs of crystal violet-stained tumorspheres of β3-negative and β3-positive cells after erlotinib, OSI-906, gemcitabine and cisplatin treatment. (E) Effect of integrin β3 expression on lapatinib, OSI-906, cisplatin and gemcitabine n=3; mean±SEM."}, "[7]": {"test_system": "subcutaneous β3-positive tumors (FG-β3, FG-R)", "assay": "Subcutaneous β3-positive tumor xenografts", "conditions": "monotherapy; lenalidomide 25 mg/kg/day, bortezomib 0.25 mg/kg", "method": "To generate subcutaneous tumors, FG-β3, FG-R (after erlotinib resistance) and HCC-827 human carcinoma cells (5×10^6 tumor cells in 200 μl of PBS) were injected subcutaneously to the left or right flank of 6-8-week-old female nude mice. Tumors were measured every 2-3 days with calipers until they were harvested at day 10, 16 or after acquired resistance.\n(B) Left, mice bearing subcutaneous β3-positive tumors (FG-β3) were treated with vehicle, erlotinib (25 mg/kg/day), lenalidomide (25 mg/kg/day) or the combination of erlotinib and lenalidomide. Tumor dimensions are reported as the fold change relative to size of the same tumor on Day 1. […] Right, mice bearing subcutaneous β3-positive tumors (FG-R) after acquired resistance to erlotinib were treated with vehicle, erlotinib (25 mg/kg/day), bortezomib (0.25 mg/kg), the combination of erlotinib and bortezomib."}}, "data": [{"smiles": "C#Cc1cccc(Nc2ncnc3cc(OCCOC)c(OCCOC)cc23)c1", "note": "[erlotinib, N-(3-ethynylphenyl)-6,7-bis(2-methoxyethoxy) quinazolin-4-amine]", "values": [{"measurement": "erlotinib sensitivity", "setting": "H1650 cells", "value": "resistant"}, {"measurement": "erlotinib sensitivity", "setting": "FG, H441, and CAPAN1", "value": "sensitive"}, {"measurement": "response of β3-positive cells, tumorsphere formation in soft agar", "setting": "[1]", "value": "resistant"}, {"measurement": "time to disease progression", "setting": "[2]; Patient 1", "value": 920, "unit": "days"}, {"measurement": "time to disease progression", "setting": "[2]; Patient 2", "value": 92, "unit": "days"}, {"measurement": "time to disease progression", "setting": "[2]; Patient 3", "value": 120, "unit": "days"}, {"measurement": "initial clinical response", "setting": "[2]; all 3 patients", "value": "initial partial response"}, {"measurement": "increase in tumor cell sensitivity to erlotinib", "setting": "PANC-1 cells", "value": 10, "unit": "fold"}, {"measurement": "time treated until moribund", "setting": "[3]; 100 mg/kg/day by oral gavage, start 3 weeks after tumor cell injection", "value": "~58", "unit": "days"}, {"measurement": "tumor response to systemic erlotinib", "setting": "[3]; systemic erlotinib treatment for 7-8 weeks", "value": "developed resistance"}, {"measurement": "EGFR phosphorylation in tumor lysates", "setting": "EGFR phosphorylation", "value": "suppressed EGFR phosphorylation"}, {"measurement": "activation of TBK1 and NF-κB", "setting": "[4]; FG and FG-β3, erlotinib (0.5 μM), Example 2", "value": "decreased the activation of these effectors only in the absence of integrin β3"}, {"measurement": "levels of phosphorylated TBK1 and NF-κB", "setting": "[4]; αvβ3 negative cells", "value": "reduced levels of phosphorylated TBK1 and NF-κB"}, {"measurement": "levels of phosphorylated TBK1 and NF-κB", "setting": "[4]; β3-positive cells", "value": "remained activated"}, {"measurement": "effect of β3 expression on drug response", "setting": "[5]", "value": "reduced sensitivity"}]}, {"smiles": "N.N.[Cl][Pt][Cl]", "note": "[cisplatin]", "values": [{"measurement": "effect of αvβ3 expression on drug resistance", "setting": "FG and FG-β3 cells", "value": "failed to protect cells"}, {"measurement": "effect of β3 expression on drug response", "setting": "[5]", "value": "did not impact the response"}, {"measurement": "effect of integrin β3 expression on resistance", "setting": "[6]", "value": "did not impact resistance"}]}, {"smiles": "CC(C)C[C@H](NC(=O)[C@H](Cc1ccccc1)NC(=O)c1cnccn1)B(O)O", "note": "[bortezomib]", "values": [{"measurement": "tumor growth", "setting": "[7]", "value": "failed to impact tumor growth"}]}, {"smiles": "O=C(Nc1cc(Cl)cc2c1[nH]c1cnccc12)c1cccnc1", "note": "[PS-1145]", "values": [{"measurement": "response of β3-positive cells, tumorsphere formation in soft agar", "setting": "[1]", "value": "resistant"}]}, {"smiles": "CS(=O)(=O)CCNCc1ccc(-c2ccc3ncnc(Nc4ccc(OCc5cccc(F)c5)c(Cl)c4)c3c2)o1", "note": "[lapatinib]", "values": [{"measurement": "effect of β3 expression on drug response", "setting": "[5]", "value": "reduced sensitivity"}]}, {"smiles": "Nc1cccc2c1CN(C1CCC(=O)NC1=O)C2=O", "note": "(racemic) [lenalidomide, (RS)-3-(4-amino-1-oxo-3H-isoindol-2-yl)piperidine-2,6-dione]", "values": [{"measurement": "response of β3-positive cells, tumorsphere formation in soft agar", "setting": "[1]", "value": "resistant"}, {"measurement": "tumor growth", "setting": "[7]", "value": "failed to impact tumor growth"}]}, {"smiles": "Nc1ccn([C@@H]2O[C@H](CO)[C@@H](O)C2(F)F)c(=O)n1", "note": "[gemcitabine]", "values": [{"measurement": "effect of αvβ3 expression on drug resistance", "setting": "FG and FG-β3 cells", "value": "failed to protect cells"}, {"measurement": "effect of β3 expression on drug response", "setting": "[5]", "value": "did not impact the response"}, {"measurement": "effect of integrin β3 expression on resistance", "setting": "[6]", "value": "did not impact resistance"}]}, {"smiles": "C[C@]1(O)C[C@@H](c2nc(-c3ccc4ccc(-c5ccccc5)nc4c3)c3c(N)nccn32)C1", "note": "[OSI-906]", "values": [{"measurement": "effect of αvβ3 expression on drug resistance", "setting": "FG and FG-β3 cells", "value": "induced resistance"}, {"measurement": "effect of β3 expression on drug response", "setting": "[5]", "value": "reduced sensitivity"}]}]}
